The experiment concerns KRAS patient-derived spheroids with HUVEC/MSC, viability. Put plainly: Anticancer human tumor 323965-272-R-J2-PDC patient-derived pancreatic carcinoma cell line growth inhibition [KRAS2]. The conditions noted are these: for viability, T/C: stronger effect = lower value. The method, boiled down: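 KRAS-mutant tumor cells were grown as spheroids with HUVEC endothelial cells and human MSCs as stroma. Targeted agents were tested alone and with KRAS pathway inhibitors. Doses started at or near clinical Cmax, or 10 microM, descending half-log.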

The mark [1] stands for this setting: curve of first compound, second compound 0.1 µM.
[2] abbreviates: curve of first compound, second compound 0.316 µM.
Where [3] appears, read: curve of first compound, second compound 1 µM.
Setting [4] is: curve of first compound, second compound 3.16 µM.
The mark [5] stands for this setting: curve of first compound, second compound 10 µM.
[6] abbreviates: second compound 0.1 µM, first compound 0.0316 µM.
Setting [7] is: second compound 0.1 µM, first compound 0.1 µM.
Setting [8] is: second compound 0.1 µM, first compound 0.316 µM.
Setting [9] is: second compound 0.1 µM, first compound 1 µM.
Setting [10] is: second compound 0.1 µM, first compound 3.16 µM.
[11] abbreviates: second compound 0.1 µM, first compound 10 µM.
The mark [12] stands for this setting: second compound 0.316 µM, first compound 0.0316 µM.
The mark [13] stands for this setting: second compound 0.316 µM, first compound 0.1 µM.
The mark [14] stands for this setting: second compound 0.316 µM, first compound 0.316 µM.
The mark [15] stands for this setting: second compound 0.316 µM, first compound 1 µM.
Where [16] appears, read: second compound 0.316 µM, first compound 3.16 µM.
Setting [17] is: second compound 0.316 µM, first compound 10 µM.
The mark [18] stands for this setting: second compound 1 µM, first compound 0.0316 µM.
The mark [19] stands for this setting: second compound 1 µM, first compound 0.1 µM.
[20] abbreviates: second compound 1 µM, first compound 0.316 µM.
The mark [21] stands for this setting: second compound 1 µM, first compound 1 µM.
The mark [22] stands for this setting: second compound 1 µM, first compound 3.16 µM.
Where [23] appears, read: second compound 1 µM, first compound 10 µM.
[24] abbreviates: second compound 3.16 µM, first compound 0.0316 µM.
Setting [25] is: second compound 3.16 µM, first compound 0.1 µM.
Setting [26] is: second compound 3.16 µM, first compound 0.316 µM.
The mark [27] stands for this setting: second compound 3.16 µM, first compound 1 µM.
Setting [28] is: second compound 3.16 µM, first compound 3.16 µM.
Setting [29] is: second compound 3.16 µM, first compound 10 µM.
The mark [30] stands for this setting: second compound 10 µM, first compound 0.0316 µM.
Setting [31] is: second compound 10 µM, first compound 0.1 µM.
Where [32] appears, read: second compound 10 µM, first compound 0.316 µM.
[33] abbreviates: second compound 10 µM, first compound 1 µM.
The mark [34] stands for this setting: second compound 10 µM, first compound 3.16 µM.
Setting [35] is: second compound 10 µM, first compound 10 µM.

“And” between values parts separate entries of the source, which are not always exact repeats. Equal values may be shown once. Bounds are passed on as bounds.

One may read the viability, T/C as the ratio of treated to control. Usually IC50 stands for the concentration at which inhibition is half-maximal.
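Also: spheroids exposed to agents for 7 days.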
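For viability, T/C in this document: 100% = DMSO vehicle control viability.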

Turning to `CC1COCCN1c1cc(-c2ccnn2C)c2ccnc(-c3ccn[nH]3)c2n1` (stereo not drawn), the viability, T/C runs as follows: (compound 0.01 µM) 77.9% [middle of 5 runs]; (compound 0.0316 µM) 39.8% [middle of 5 runs]; (compound 0.1 µM) 25.1% [middle of 5 runs]; (compound 0.316 µM) 21.9% [middle of 5 runs]; (compound 1 µM) 20.6% [middle of 5 runs]; (compound 3.16 µM) 18.9% [middle of 5 runs]. Also, the IC50 (curve of compound) is 23.8 nM [middle of 5 runs].
With `CC1(C)CCC(CN2CCN(c3ccc(C(=O)NS(=O)(=O)c4ccc(NCC5CCOCC5)c([N+](=O)[O-])c4)c(Oc4cnc5[nH]ccc5c4)c3)CC2)=C(c2ccc(Cl)cc2)C1` + COc1cc2nc(C)nc(NC(C)c3cc(N)cc(C(F)(F)F)c3)c2cc1OC1CCOC1, the IC50 reads like this: under setting [1], 1.52 µM; under setting [2], 1.57 µM; under setting [3], 1.29 µM; under setting [4], 1.34 µM; under setting [5], 0.591 µM. Besides, the viability, T/C runs as follows: under setting [6], 76.6%; under setting [7], 80.4%; under setting [8], 67.8%; under setting [9], 72.2%; under setting [10], 11.2%; under setting [11], 2.78%. For the same molecule, the viability, T/C is 67.7% under setting [12]; 77.3% under setting [13]; 75.2% under setting [14]; 71.5% under setting [15]; 16.8% under setting [16]; 3.87% under setting [17]. The viability, T/C was 76.2% under setting [18]; 84.2% under setting [19]; 84.3% under setting [20]; 60.3% under setting [21]; 12.5% under setting [22]; 2.67% under setting [23]. Also, the viability, T/C reads like this: under setting [24], 87.4%; under setting [25], 80.6%; under setting [26], 84.7%; under setting [27], 65.1%; under setting [28], 6.04%; under setting [29], 2.28%. For the same molecule, the viability, T/C was 80.7% under setting [30]; 79.9% under setting [31]; 61.1% under setting [32]; 41.6% under setting [33]; 3.41% under setting [34]; 1.41% under setting [35].
Take `COC(=O)c1ccc2c(C(=Nc3ccc(N(C)C(=O)CN4CCN(C)CC4)cc3)c3ccccc3)c(O)[nH]c2c1` + CNCc1ccccc1-c1csc(C(C)Nc2nc(C)nc3cc(OC)c(OC)cc23)c1: the IC50 is, setting by setting: under setting [1], over 10 µM; under setting [2], over 10 µM; under setting [3], over 10 µM; under setting [4], over 10 µM; under setting [5], under 0.0316 µM. Besides, the viability, T/C is, setting by setting: under setting [6], 94.9%; under setting [7], 90%; under setting [8], 102%; under setting [9], 94.2%; under setting [10], 95.7%; under setting [11], 89.2%. Further, the viability, T/C reads like this: under setting [12], 90.6%; under setting [13], 88.4%; under setting [14], 97%; under setting [15], 98.2%; under setting [16], 94.3%; under setting [17], 86.5%. Besides, the viability, T/C is, setting by setting: under setting [18], 90.3%; under setting [19], 90.8%; under setting [20], 85.7%; under setting [21], 79.6%; under setting [22], 93.7%; under setting [23], 90.4%. In addition, the viability, T/C is, setting by setting: under setting [24], 102%; under setting [25], 105%; under setting [26], 99.6%; under setting [27], 103%; under setting [28], 90%; under setting [29], 88.6%. Also, the viability, T/C is, setting by setting: under setting [30], 0.33%; under setting [31], 1.26%; under setting [32], 0.33%; under setting [33], 0.3%; under setting [34], 0.44%; under setting [35], 0.35%.
With `COC(=O)c1ccc2c(C(=Nc3ccc(N(C)C(=O)CN4CCN(C)CC4)cc3)c3ccccc3)c(O)[nH]c2c1`, the viability, T/C by setting is: (compound 0.0316 µM) 97.4% [middle of 5 runs]; (compound 0.1 µM) 102% [middle of 5 runs]; (compound 0.316 µM) 101% [middle of 5 runs]; (compound 1 µM) 98% [middle of 5 runs]; (compound 3.16 µM) 98.7% [middle of 5 runs]. The IC50 (curve of compound) was 7.38 µM and > 10 µM and 7.57 µM.
Regarding `CN(C)C/C=C/C(=O)Nc1cc2c(Nc3ccc(F)c(Cl)c3)ncnc2cc1O[C@H]1CCOC1` + COc1cc2nc(C)nc(NC(C)c3cc(N)cc(C(F)(F)F)c3)c2cc1OC1CCOC1, the IC50 runs as follows: under setting [1], over 0.1 µM; under setting [2], over 0.1 µM; under setting [3], over 0.1 µM; under setting [4], 0.025 µM; under setting [5], 0.0148 µM. For the same molecule, the viability, T/C reads like this: (second compound 0.1 µM, first compound 0.000316 µM) 84.3%; (second compound 0.1 µM, first compound 0.001 µM) 65.2%; (second compound 0.1 µM, first compound 0.00316 µM) 65.8%; (second compound 0.1 µM, first compound 0.01 µM) 60.5%; under setting [6], 62.1%; under setting [7], 60.7%. The viability, T/C was 67.7% (second compound 0.316 µM, first compound 0.000316 µM); 65.6% (second compound 0.316 µM, first compound 0.001 µM); 53.6% (second compound 0.316 µM, first compound 0.00316 µM); 46.5% (second compound 0.316 µM, first compound 0.01 µM); 51.2% under setting [12]; 54.5% under setting [13]. The viability, T/C is 59.5% (second compound 1 µM, first compound 0.000316 µM); 94.3% (second compound 1 µM, first compound 0.001 µM); 74.7% (second compound 1 µM, first compound 0.00316 µM); 73% (second compound 1 µM, first compound 0.01 µM); 61.3% under setting [18]; 69.1% under setting [19]. For the same molecule, the viability, T/C is 74.3% (second compound 3.16 µM, first compound 0.000316 µM); 71.7% (second compound 3.16 µM, first compound 0.001 µM); 59.5% (second compound 3.16 µM, first compound 0.00316 µM); 54.2% (second compound 3.16 µM, first compound 0.01 µM); 47.8% under setting [24]; 49.2% under setting [25]. In addition, the viability, T/C runs as follows: (second compound 10 µM, first compound 0.000316 µM) 92.1%; (second compound 10 µM, first compound 0.001 µM) 75.8%; (second compound 10 µM, first compound 0.00316 µM) 59.3%; (second compound 10 µM, first compound 0.01 µM) 49.4%; under setting [30], 49.1%; under setting [31], 48.4%.
